# Source: patent publication US10550111B2, “Pyrimidine urea compound containing isoxazolines and use thereof” (SHENYANG SINOCHEM AGROCHEMICALS R&D CO., LTD, priority 2014, dated 2020)
# Key:
# Type in all cases: in vivo
# [1] = tested on: Abutilon theophrasti Medic.; test: Bioassay of herbicidal activity in greenhouse (further screening)
# Method: (§1) Determination of herbicidal activity of compounds of the present invention against weeds was carried out by the following procedures:
# (§2) Seeds of monocotyledonous and dicotyledonous weeds were sown in nutrition soil in paper pot (7 cm diameter), covered with soil in 1 cm and grown in the greenhouse under good growth conditions (temperature, atmospheric humidity, water supply). The compounds of the present invention as emulsifiable concentrate, were applied in pre-emergence and post-emergence treatment by track sprayer (Engineer Research Ltd., pressure 1.95 kg/cm^2, volume 500 L/hm^2, track speed 1.48 km/h). Pre-emergence treatment was conducted after seeding 24 hours and post-emergence treatment was done when the respective weeds reached predetermined leaf stage (grass weed 2- to 3-leaf stage, broad-leaf weed 2- to 4-leaf stage), the state of growth of the respective weeds were visually observed to determine the growth inhibition rate (%) in accordance with the following evaluation standard.
# (§3) Growth inhibition rate (%): 0=no discernible action: 100=all weeds dead or not emerged.
# [2] = tested on: Echinochloa crus-galli (L.) Beauv.; test: as above
# Method: as §1, §2, §3
# [3] = tested on: Setaria glauca (L.) Beauv.; test: as above
# Method: as §1, §2, §3
# Zinnia elegans Jacq. = test: as above
# Method: as §1, §2, §3
# [4] = tested on: broad-leaf weeds and grass weeds; test: General screening of herbicidal activity in greenhouse; settings: 1000 g a.i./hm^2;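 note: 0 means no visible effect and 100 means all weeds dead or not emerged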
# Method: as §1, §2, §3
structure (smiles),measurement,setting,value
CCOC(=O)C1(C)CC(c2cc(-n3c(=O)cc(C(F)(F)F)n(C)c3=O)ccc2Cl)=NO1 (stereo not shown) [Compound 284],"Growth inhibition rate, Post-emergence treatment, Abutilon theophrasti Medic.",[1]; dose 37.5 g a.i./hm^2,95%
same,"Growth inhibition rate, Post-emergence treatment, Abutilon theophrasti Medic.",[1]; dose 150 g a.i./hm^2,100%
same,"Growth inhibition rate, Post-emergence treatment, Abutilon theophrasti Medic.",[1]; dose 600 g a.i./hm^2,100%
same,"Growth inhibition rate, Pre-emergence treatment, Abutilon theophrasti Medic.",[1]; dose 37.5 g a.i./hm^2,0%
same,"Growth inhibition rate, Pre-emergence treatment, Abutilon theophrasti Medic.",[1]; dose 150 g a.i./hm^2,50%
same,"Growth inhibition rate, Pre-emergence treatment, Abutilon theophrasti Medic.",[1]; dose 600 g a.i./hm^2,65%
same,"Growth inhibition rate, Post-emergence treatment, Echinochloa crus-galli (L.) Beauv.",[2]; dose 37.5 g a.i./hm^2,70%
same,"Growth inhibition rate, Post-emergence treatment, Echinochloa crus-galli (L.) Beauv.",[2]; dose 150 g a.i./hm^2,80%
same,"Growth inhibition rate, Post-emergence treatment, Echinochloa crus-galli (L.) Beauv.",[2]; dose 600 g a.i./hm^2,100%
same,"Growth inhibition rate, Pre-emergence treatment, Echinochloa crus-galli (L.) Beauv.",[2]; dose 37.5 g a.i./hm^2,0%
same,"Growth inhibition rate, Pre-emergence treatment, Echinochloa crus-galli (L.) Beauv.",[2]; dose 150 g a.i./hm^2,10%
same,"Growth inhibition rate, Pre-emergence treatment, Echinochloa crus-galli (L.) Beauv.",[2]; dose 600 g a.i./hm^2,20%
same,"Growth inhibition rate, Post-emergence treatment, Setaria glauca (L.) Beauv.",[3]; dose 37.5 g a.i./hm^2,75%
same,"Growth inhibition rate, Post-emergence treatment, Setaria glauca (L.) Beauv.",[3]; dose 150 g a.i./hm^2,90%
same,"Growth inhibition rate, Post-emergence treatment, Setaria glauca (L.) Beauv.",[3]; dose 600 g a.i./hm^2,100%
same,"Growth inhibition rate, Pre-emergence treatment, Setaria glauca (L.) Beauv.",[3]; dose 37.5 g a.i./hm^2,0%
same,"Growth inhibition rate, Pre-emergence treatment, Setaria glauca (L.) Beauv.",[3]; dose 150 g a.i./hm^2,10%
same,"Growth inhibition rate, Pre-emergence treatment, Setaria glauca (L.) Beauv.",[3]; dose 600 g a.i./hm^2,20%
same,"Growth inhibition rate, Post-emergence treatment, Zinnia elegans Jacq.",Zinnia elegans Jacq.; dose 37.5 g a.i./hm^2,100%
same,"Growth inhibition rate, Post-emergence treatment, Zinnia elegans Jacq.",Zinnia elegans Jacq.; dose 150 g a.i./hm^2,100%
same,"Growth inhibition rate, Post-emergence treatment, Zinnia elegans Jacq.",Zinnia elegans Jacq.; dose 600 g a.i./hm^2,100%
same,"Growth inhibition rate, Pre-emergence treatment, Zinnia elegans Jacq.",Zinnia elegans Jacq.; dose 37.5 g a.i./hm^2,0%
same,"Growth inhibition rate, Pre-emergence treatment, Zinnia elegans Jacq.",Zinnia elegans Jacq.; dose 150 g a.i./hm^2,10%
same,"Growth inhibition rate, Pre-emergence treatment, Zinnia elegans Jacq.",Zinnia elegans Jacq.; dose 600 g a.i./hm^2,35%
same,pre-emergence and post-emergence herbicidal activity against broad-leaf weeds and grass weeds,[4],good
CC(C)COC(=O)C1(C)CC(c2cc(-n3c(=O)cc(C(F)(F)F)n(C)c3=O)c(F)cc2Cl)=NO1 (stereo not shown) [Compound 397],"Growth inhibition rate, Post-emergence treatment, Abutilon theophrasti Medic.",[1]; dose 7.5 g a.i./hm^2,98%
same,"Growth inhibition rate, Post-emergence treatment, Abutilon theophrasti Medic.",[1]; dose 15 g a.i./hm^2,100%
same,"Growth inhibition rate, Post-emergence treatment, Abutilon theophrasti Medic.",[1]; dose 30.0 g a.i./hm^2,100%
same,"Growth inhibition rate, Post-emergence treatment, Abutilon theophrasti Medic.",[1]; dose 60.0 g a.i./hm^2,100%
same,"Growth inhibition rate, Post-emergence treatment, Abutilon theophrasti Medic.",[1]; dose 120.0 g a.i./hm^2,100%
same,"Growth inhibition rate, Post-emergence treatment, Echinochloa crus-galli (L.) Beauv.",[2]; dose 7.5 g a.i./hm^2,45%
same,"Growth inhibition rate, Post-emergence treatment, Echinochloa crus-galli (L.) Beauv.",[2]; dose 15 g a.i./hm^2,65%
same,"Growth inhibition rate, Post-emergence treatment, Echinochloa crus-galli (L.) Beauv.",[2]; dose 30.0 g a.i./hm^2,100%
same,"Growth inhibition rate, Post-emergence treatment, Echinochloa crus-galli (L.) Beauv.",[2]; dose 60.0 g a.i./hm^2,100%
same,"Growth inhibition rate, Post-emergence treatment, Echinochloa crus-galli (L.) Beauv.",[2]; dose 120.0 g a.i./hm^2,100%
same,"Growth inhibition rate, Post-emergence treatment, Setaria glauca (L.) Beauv.",[3]; dose 7.5 g a.i./hm^2,55%
same,"Growth inhibition rate, Post-emergence treatment, Setaria glauca (L.) Beauv.",[3]; dose 15 g a.i./hm^2,75%
same,"Growth inhibition rate, Post-emergence treatment, Setaria glauca (L.) Beauv.",[3]; dose 30.0 g a.i./hm^2,85%
same,"Growth inhibition rate, Post-emergence treatment, Setaria glauca (L.) Beauv.",[3]; dose 60.0 g a.i./hm^2,100%
same,"Growth inhibition rate, Post-emergence treatment, Setaria glauca (L.) Beauv.",[3]; dose 120.0 g a.i./hm^2,100%
same,"Growth inhibition rate, Post-emergence treatment, Zinnia elegans Jacq.",Zinnia elegans Jacq.; dose 7.5 g a.i./hm^2,60%
same,"Growth inhibition rate, Post-emergence treatment, Zinnia elegans Jacq.",Zinnia elegans Jacq.; dose 15 g a.i./hm^2,85%
same,"Growth inhibition rate, Post-emergence treatment, Zinnia elegans Jacq.",Zinnia elegans Jacq.; dose 30.0 g a.i./hm^2,95%
same,"Growth inhibition rate, Post-emergence treatment, Zinnia elegans Jacq.",Zinnia elegans Jacq.; dose 60.0 g a.i./hm^2,100%
same,"Growth inhibition rate, Post-emergence treatment, Zinnia elegans Jacq.",Zinnia elegans Jacq.; dose 120.0 g a.i./hm^2,100%
same,pre-emergence and post-emergence herbicidal activity against broad-leaf weeds and grass weeds,[4],good
CCOCCOC(=O)C1(C)CC(c2cc(-n3c(=O)cc(C(F)(F)F)n(C)c3=O)c(F)cc2Cl)=NO1 (stereo not shown) [Compound 15],"Growth inhibition rate, Post-emergence treatment, Abutilon theophrasti Medic.",[1]; dose 7.5 g a.i./hm^2,65%
same,"Growth inhibition rate, Post-emergence treatment, Abutilon theophrasti Medic.",[1]; dose 15 g a.i./hm^2,100%
same,"Growth inhibition rate, Post-emergence treatment, Abutilon theophrasti Medic.",[1]; dose 30.0 g a.i./hm^2,100%
same,"Growth inhibition rate, Post-emergence treatment, Abutilon theophrasti Medic.",[1]; dose 60.0 g a.i./hm^2,100%
same,"Growth inhibition rate, Post-emergence treatment, Abutilon theophrasti Medic.",[1]; dose 120.0 g a.i./hm^2,100%
same,"Growth inhibition rate, Post-emergence treatment, Echinochloa crus-galli (L.) Beauv.",[2]; dose 7.5 g a.i./hm^2,70%
same,"Growth inhibition rate, Post-emergence treatment, Echinochloa crus-galli (L.) Beauv.",[2]; dose 15 g a.i./hm^2,85%
same,"Growth inhibition rate, Post-emergence treatment, Echinochloa crus-galli (L.) Beauv.",[2]; dose 30.0 g a.i./hm^2,100%
same,"Growth inhibition rate, Post-emergence treatment, Echinochloa crus-galli (L.) Beauv.",[2]; dose 60.0 g a.i./hm^2,100%
same,"Growth inhibition rate, Post-emergence treatment, Echinochloa crus-galli (L.) Beauv.",[2]; dose 120.0 g a.i./hm^2,100%
same,"Growth inhibition rate, Post-emergence treatment, Setaria glauca (L.) Beauv.",[3]; dose 7.5 g a.i./hm^2,75%
same,"Growth inhibition rate, Post-emergence treatment, Setaria glauca (L.) Beauv.",[3]; dose 15 g a.i./hm^2,98%
same,"Growth inhibition rate, Post-emergence treatment, Setaria glauca (L.) Beauv.",[3]; dose 30.0 g a.i./hm^2,100%
same,"Growth inhibition rate, Post-emergence treatment, Setaria glauca (L.) Beauv.",[3]; dose 60.0 g a.i./hm^2,100%
same,"Growth inhibition rate, Post-emergence treatment, Setaria glauca (L.) Beauv.",[3]; dose 120.0 g a.i./hm^2,100%
same,"Growth inhibition rate, Post-emergence treatment, Zinnia elegans Jacq.",Zinnia elegans Jacq.; dose 7.5 g a.i./hm^2,100%
same,"Growth inhibition rate, Post-emergence treatment, Zinnia elegans Jacq.",Zinnia elegans Jacq.; dose 15 g a.i./hm^2,100%
same,"Growth inhibition rate, Post-emergence treatment, Zinnia elegans Jacq.",Zinnia elegans Jacq.; dose 30.0 g a.i./hm^2,100%
same,"Growth inhibition rate, Post-emergence treatment, Zinnia elegans Jacq.",Zinnia elegans Jacq.; dose 60.0 g a.i./hm^2,100%
same,"Growth inhibition rate, Post-emergence treatment, Zinnia elegans Jacq.",Zinnia elegans Jacq.; dose 120.0 g a.i./hm^2,100%
same,pre-emergence and post-emergence herbicidal activity against broad-leaf weeds and grass weeds,[4],good
